Assay results reported in PubChem BioAssay AID248 (DTP/NCI, 2004).
Toxic doses and inconclusive results are not listed. Cut-off read from the data, not from the text of the source: active = T/C of 150% or more; inactive = T/C below 125%.

System: L1210 leukemia ip in BDF1 mice, survival T/C
Assay: NCI In Vivo Anticancer Drug Screen. Data for tumor model L1210 Leukemia (intraperitoneal) in B6D2F1 (BDF1) mice
Conditions: endpoint: mean survival time, higher = longer survival
Outline: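 Ratio derived from survival: compound-dosed mice over vehicle-dosed mice, all bearing a transplantable tumor.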

[1] = dose: 100.0 mg/kg/injection, schedule: Q04DX003 (ip), vehicle: saline with Tween-80
[2] = dose: 200.0 mg/kg/injection, schedule: Q04DX003 (ip), vehicle: saline with Tween-80
[3] = dose: 400.0 mg/kg/injection, schedule: Q04DX003 (ip), vehicle: saline with Tween-80
[4] = dose: 100.0 mg/kg/injection, schedule: Q01DX009 (ip), vehicle: Klucel (hydroxypropylcellulose) (HPC)
[5] = dose: 200.0 mg/kg/injection, schedule: Q01DX009 (ip), vehicle: Klucel (hydroxypropylcellulose) (HPC)
[6] = dose: 400.0 mg/kg/injection, schedule: Q01DX009 (ip), vehicle: Klucel (hydroxypropylcellulose) (HPC)
[7] = dose: 100.0 mg/kg/injection, schedule: Q01DX009 (ip), vehicle: saline with Tween-80
[8] = dose: 200.0 mg/kg/injection, schedule: Q01DX009 (ip), vehicle: saline with Tween-80
[9] = dose: 400.0 mg/kg/injection, schedule: Q01DX009 (ip), vehicle: saline with Tween-80
[10] = dose: 50.0 mg/kg/injection, schedule: Q01DX009 (ip), vehicle: saline
[11] = dose: 100.0 mg/kg/injection, schedule: Q01DX001 (ip), vehicle: saline
[12] = dose: 100.0 mg/kg/injection, schedule: Q01DX009 (ip), vehicle: saline
[13] = dose: 200.0 mg/kg/injection, schedule: Q01DX001 (ip), vehicle: saline
[14] = dose: 200.0 mg/kg/injection, schedule: Q01DX009 (ip), vehicle: saline
[15] = dose: 100.0 mg/kg/injection, schedule: Q04DX003 (ip), vehicle: Klucel (hydroxypropylcellulose) (HPC)
[16] = dose: 200.0 mg/kg/injection, schedule: Q04DX003 (ip), vehicle: Klucel (hydroxypropylcellulose) (HPC)
[17] = dose: 400.0 mg/kg/injection, schedule: Q04DX003 (ip), vehicle: Klucel (hydroxypropylcellulose) (HPC)
[18] = dose: 100.0 mg/kg/injection, schedule: Q04DX003 (ip), vehicle: saline
[19] = dose: 200.0 mg/kg/injection, schedule: Q04DX003 (ip), vehicle: saline
[20] = dose: 400.0 mg/kg/injection, schedule: Q04DX003 (ip), vehicle: saline

Measured: T/C

CC1NCc2c(N)ncnc21 (stereo not drawn)
inactive: dose: 100.0 mg/kg/injection, schedule: Q01DX001 (ip), vehicle: carboxymethylcellulose (CMC) 106 % of control | dose: 200.0 mg/kg/injection, schedule: Q01DX001 (ip), vehicle: carboxymethylcellulose (CMC) 112 % of control | dose: 400.0 mg/kg/injection, schedule: Q01DX001 (ip), vehicle: carboxymethylcellulose (CMC) 98 % of control

CCOC(=O)Cc1cn(C)c2ccccc12
inactive: [1] 93 % of control | [2] 91 % of control | [3] 96 % of control

COc1cccc(OC)c1C(c1c(OC)cccc1OC)c1c(OC)cccc1OC
inactive: [1] 95 % of control | [2] 91 % of control | [3] 101 % of control

O=C(O)c1c(Br)c(Br)c(Br)c(Br)c1C(=O)Nc1cccc2c(O)cccc12
inactive: [4] 110 % of control | [5] 107 % of control | [6] 96 % of control

CCN(CC)/N=N/c1[nH]ncc1C(N)=O
inactive: dose: 88.0 mg/kg/injection, schedule: Q01DX009 (ip), vehicle: saline with Tween-80 119 % of control | dose: 100.0 mg/kg/injection, schedule: Q01DX001 (ip), vehicle: saline with Tween-80 111 % of control | [1] 101 % of control | dose: 200.0 mg/kg/injection, schedule: Q01DX001 (ip), vehicle: saline with Tween-80 103 % of control | [2] 103 % of control | dose: 300.0 mg/kg/injection, schedule: Q01DX009 (ip), vehicle: saline with Tween-80 110 % of control | dose: 400.0 mg/kg/injection, schedule: Q01DX001 (ip), vehicle: saline with Tween-80 106 % of control | [3] 108 % of control

CCCCC(C(=O)O)(c1ccccc1)c1ccccc1
inactive: dose: 75.0 mg/kg/injection, schedule: Q04DX002 (ip), vehicle: gum acacia 96 % of control | dose: 150.0 mg/kg/injection, schedule: Q04DX002 (ip), vehicle: gum acacia 107 % of control

N#Cc1nc2c(nc1C#N)-c1ccccc1C2=O
inactive: dose: 6.25 mg/kg/injection, schedule: Q01DX009 (ip), vehicle: Klucel (hydroxypropylcellulose) (HPC) 99 % of control | dose: 12.5 mg/kg/injection, schedule: Q01DX009 (ip), vehicle: Klucel (hydroxypropylcellulose) (HPC) 94 % of control | dose: 12.5 mg/kg/injection, schedule: Q04DX003 (ip), vehicle: Klucel (hydroxypropylcellulose) (HPC) 104 % of control | dose: 25.0 mg/kg/injection, schedule: Q04DX003 (ip), vehicle: Klucel (hydroxypropylcellulose) (HPC) 112 % of control

CC1C2Cc3ccc(O)cc3C1(C)CCN2C/C=C\Cl (stereo not drawn)
inactive: [7] 94 % of control | [8] 95 % of control | [9] 95 % of control

Cc1ccc(S(=O)(=O)NC(=S)Nc2ccccc2)cc1
inactive: dose: 50.0 mg/kg/injection, schedule: Q01DX001 (ip), vehicle: saline 98 % of control | [10] 102 % of control | [11] 101 % of control | [12] 95 % of control | [13] 101 % of control | [14] 109 % of control

CN1CCC(CC(=O)O)CC1
inactive: [10] 92 % of control | [12] 92 % of control | [14] 111 % of control

CCOC(=O)C(C#N)(CC)C1=CCCCC1 (stereo not drawn)
inactive: [4] 106 % of control | [15] 97 % of control | [5] 93 % of control | [16] 97 % of control | [6] 97 % of control | [17] 102 % of control

O=Cc1ccc(C(=O)O)cc1O
inactive: [1] 98 % of control | [2] 102 % of control

COc1cccc(N=Nc2ccc(N(C)C)cc2)c1
inactive: [11] 95 % of control | [13] 95 % of control | dose: 400.0 mg/kg/injection, schedule: Q01DX001 (ip), vehicle: saline 103 % of control

CC(C)=CCN(CC=C(C)C)CCC(C#N)(CCN(CC=C(C)C)CC=C(C)C)c1cccc2ccccc12
inactive: [4] 86 % of control

C/C=C(/C(=O)O)c1ccccc1
inactive: [15] 109 % of control | [16] 88 % of control | [17] 94 % of control

C=CCN1CCCCC1C1(c2ccccc2)CCCC1 (stereo not drawn)
inactive: dose: 75.0 mg/kg/injection, schedule: Q01DX001 (ip), vehicle: acid diluted with saline 92 % of control

C#CC1(O)CCC2C3CCc4cc(O)ccc4C3CCC21C (stereo not drawn)
inactive: dose: 50.0 mg/kg/injection, schedule: Q01DX001 (sc), vehicle: steriod suspending solution 94 % of control | dose: 100.0 mg/kg/injection, schedule: Q01DX001 (sc), vehicle: steriod suspending solution 92 % of control | dose: 200.0 mg/kg/injection, schedule: Q01DX001 (sc), vehicle: steriod suspending solution 106 % of control | dose: 400.0 mg/kg/injection, schedule: Q01DX001 (sc), vehicle: steriod suspending solution 97 % of control

CC(C)NC(=O)Nc1ccc(F)cc1
inactive: dose: 100.0 mg/kg/injection, schedule: Q01DX009 (ip), vehicle: acetone 92 % of control | dose: 200.0 mg/kg/injection, schedule: Q01DX009 (ip), vehicle: acetone 101 % of control | dose: 400.0 mg/kg/injection, schedule: Q01DX009 (ip), vehicle: acetone 94 % of control

CCCCCCCCCCCCCCOc1ccc(Cc2ccccc2)cc1
inactive: [15] 91 % of control | [16] 90 % of control | [17] 88 % of control

O=[N+]([O-])c1cnccc1/C=C\c1ccccc1
inactive: dose: 100.0 mg/kg/injection, schedule: Q01DX001 (ip), vehicle: Klucel (hydroxypropylcellulose) (HPC) 86 % of control | dose: 200.0 mg/kg/injection, schedule: Q01DX001 (ip), vehicle: Klucel (hydroxypropylcellulose) (HPC) 105 % of control | dose: 400.0 mg/kg/injection, schedule: Q01DX001 (ip), vehicle: Klucel (hydroxypropylcellulose) (HPC) 94 % of control

CC1CCCC(C)(CO)O1 (stereo not drawn)
inactive: [12] 93 % of control | [18] 97 % of control | [14] 101 % of control | [19] 97 % of control | dose: 400.0 mg/kg/injection, schedule: Q01DX009 (ip), vehicle: saline 109 % of control | [20] 97 % of control

COc1ccc(OC)c2[nH]c(-c3ccccc3)cc12
inactive: dose: 100.0 mg/kg/injection, schedule: Q04DX002 (ip), vehicle: Klucel (hydroxypropylcellulose) (HPC) 96 % of control | dose: 200.0 mg/kg/injection, schedule: Q04DX002 (ip), vehicle: Klucel (hydroxypropylcellulose) (HPC) 105 % of control | dose: 400.0 mg/kg/injection, schedule: Q04DX002 (ip), vehicle: Klucel (hydroxypropylcellulose) (HPC) 93 % of control

C#CCN(C)Cc1ccccc1
inactive: dose: 25.0 mg/kg/injection, schedule: Q01DX009 (ip), vehicle: saline 94 % of control | [10] 89 % of control | [12] 87 % of control | [18] 103 % of control | [14] 98 % of control | [19] 103 % of control | [20] 97 % of control

O=c1[nH]c(=O)n2n1CC(Br)C(Br)C2 (stereo not drawn)
inactive: [7] 94 % of control | [1] 106 % of control | [8] 96 % of control | [2] 110 % of control | [9] 100 % of control | [3] 94 % of control

CN(C)C(=O)OCC[N+](C)(C)CCCCCC[N+](C)(C)CCOC(=O)N(C)C
inactive: dose: 12.0 mg/kg/injection, schedule: Q04DX003 (ip), vehicle: saline 105 % of control | dose: 25.0 mg/kg/injection, schedule: Q04DX003 (ip), vehicle: saline 96 % of control | dose: 50.0 mg/kg/injection, schedule: Q04DX003 (ip), vehicle: saline 97 % of control | dose: 75.0 mg/kg/injection, schedule: Q04DX003 (ip), vehicle: saline 92 % of control

CN(C(=S)Nc1ccccc1)c1cc(N2CCCC2)ccn1
inactive: [11] 98 % of control | [13] 98 % of control

Nc1cc([N+](=O)[O-])ccc1Cl
inactive: [4] 99 % of control | [15] 102 % of control | [5] 101 % of control | [16] 102 % of control | [17] 103 % of control

CC(=O)C1=CC(=O)c2ccccc2C1=O
inactive: dose: 20.0 mg/kg/injection, schedule: Q01DX001 (ip), vehicle: water 103 % of control | dose: 40.0 mg/kg/injection, schedule: Q01DX001 (ip), vehicle: water 95 % of control | dose: 80.0 mg/kg/injection, schedule: Q01DX001 (ip), vehicle: water 93 % of control
